Compound: CC1=C(N=C(N=C1N)[C@H](CC(=O)N)NC[C@@H](C(=O)N)N)C(=O)N[C@@H]([C@H](C2=CN=CN2)OC3C(C(C(C(O3)CO)O)O)OC4C(C(C(C(O4)CO)O)OC(=O)N)O)C(=O)N[C@H](C)[C@H]([C@H](C)C(=O)N[C@@H]([C@@H](C)O)C(=O)NCCC5=NC(=CS5)C6=NC(=CS6)C(=O)NCCC[S+](C)C)O [Bleomycin] + Cc1nc(NC(=O)N2CCC[C@H]2C(N)=O)sc1-c1ccnc(C(C)(C)C(F)(F)F)c1 [Alpelisib] (partner 2 µM)
Assay: relative viability (nuclei count vs DMSO), 5 days (fraction); higher = more cells survive
Settings: first compound 0.01 µM; main component drawn
Method in brief: (§1)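 Lung cancer cell lines in 1536-well plates were dosed by pin tool the day after seeding, either with one drug alone or with a fixed anchor-drug dose plus five library-drug doses (not always all listed) in √10 steps. After 5 days, cells were fixed and their nuclei stained in one step (final 0.05% Triton X-100, 1% formaldehyde, 1 ug/ml Hoechst), then counted on 4× images. Relative viability is the nuclei count in treated wells divided by that in vehicle wells. Values are medians of duplicate plates.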

Cell Line | relative viability
NCI-H1355 | 0.777
NCI-H322M | 0.738
NCI-H1437 | 0.799
NCI-H1755 | 0.939
NCI-H2023 | 0.403
HCC-15 | 0.79
NCI-H1793 | 0.695
PC-3 [JPC-3] | 0.847
EKVX | 0.894
LC-2-ad | 0.699
NCI-H1944 | 0.627
NCI-H1975 | 0.607
SK-LU-1 | 0.889
NCI-H358 | 0.889
NCI-H661 | 0.439
RERF-LC-KJ | 0.58

Same assay, conditions: first compound 0.03162 µM; main component drawn

Cell Line | relative viability
NCI-H1355 | 0.935
NCI-H322M | 0.84
NCI-H1437 | 0.922
NCI-H1755 | 0.93
NCI-H2023 | 0.536
HCC-15 | 0.852
NCI-H1793 | 0.783
PC-3 [JPC-3] | 0.993
EKVX | 0.738
LC-2-ad | 0.66
NCI-H1944 | 0.518
NCI-H1975 | 0.616
SK-LU-1 | 0.735
NCI-H358 | 0.799
NCI-H661 | 0.66
RERF-LC-KJ | 0.589

Same assay, conditions: first compound 0.1 µM; main component drawn

Cell Line | relative viability
NCI-H1355 | 0.802
NCI-H322M | 0.81
NCI-H1437 | 0.83
NCI-H1755 | 0.906
NCI-H2023 | 0.325
HCC-15 | 0.751
NCI-H1793 | 0.612
PC-3 [JPC-3] | 0.905
EKVX | 0.683
LC-2-ad | 0.307
NCI-H1944 | 0.506
NCI-H1975 | 0.555
SK-LU-1 | 0.902
NCI-H358 | 0.712
NCI-H661 | 0.411
RERF-LC-KJ | 0.53

Same assay, conditions: first compound 0.3162 µM; main component drawn

Cell Line | relative viability
NCI-H1355 | 0.566
NCI-H322M | 0.859
NCI-H1437 | 0.406
NCI-H1755 | 0.658
NCI-H2023 | 0.149
HCC-15 | 0.35
NCI-H1793 | 0.171
PC-3 [JPC-3] | 0.655
EKVX | 0.345
LC-2-ad | 0.126
NCI-H1944 | 0.288
NCI-H1975 | 0.254
SK-LU-1 | 0.502
NCI-H358 | 0.481
NCI-H661 | 0.247
RERF-LC-KJ | 0.253

Same assay, conditions: first compound 1 µM; main component drawn

Cell Line | relative viability
NCI-H1355 | 0.323
NCI-H322M | 0.559
NCI-H1437 | 0.396
NCI-H1755 | 0.58
NCI-H2023 | 0.101
HCC-15 | 0.236
NCI-H1793 | 0.176
PC-3 [JPC-3] | 0.506
EKVX | 0.37
LC-2-ad | 0.106
NCI-H1944 | 0.179
NCI-H1975 | 0.232
SK-LU-1 | 0.412
NCI-H358 | 0.349
NCI-H661 | 0.196
RERF-LC-KJ | 0.266

Compound: COc1cc([C@@H]2c3cc4c(cc3[C@@H](O[C@@H]3O[C@@H]5CO[C@@H](C)O[C@H]5[C@H](O)[C@H]3O)[C@H]3COC(=O)[C@H]23)OCO4)cc(OC)c1O [Etoposide] + CC(=O)Nc1cccc(-n2c(=O)n(C3CC3)c(=O)c3c(Nc4ccc(I)cc4F)n(C)c(=O)c(C)c32)c1 [Trametinib] (partner 0.02 µM)
Assay: as above
Settings: first compound 0.01 µM
Method in brief: as §1

Cell Line | relative viability
NCI-H1355 | 0.396
NCI-H322M | 0.531
NCI-H1437 | 0.417
NCI-H1755 | 0.751
NCI-H2023 | 0.448
HCC-15 | 0.35
PC-3 [JPC-3] | 0.693
EKVX | 0.287
LC-2-ad | 0.884
NCI-H1944 | 0.435
NCI-H1975 | 0.303
SK-LU-1 | 0.446
NCI-H358 | 0.141
NCI-H661 | 0.567
RERF-LC-KJ | 0.7

Same assay, conditions: first compound 0.03162 µM

Cell Line | relative viability
NCI-H1355 | 0.478
NCI-H322M | 0.564
NCI-H1437 | 0.551
NCI-H1755 | 0.787
NCI-H2023 | 0.647
HCC-15 | 0.469
NCI-H1793 | 0.484
PC-3 [JPC-3] | 0.756
EKVX | 0.382
LC-2-ad | 0.902
NCI-H1944 | 0.46
NCI-H1975 | 0.425
SK-LU-1 | 0.411
NCI-H358 | 0.122
NCI-H661 | 0.639
RERF-LC-KJ | 0.899

Same assay, conditions: first compound 0.1 µM

Cell Line | relative viability
NCI-H1355 | 0.27
NCI-H322M | 0.469
NCI-H1437 | 0.361
NCI-H1755 | 0.692
NCI-H2023 | 0.559
HCC-15 | 0.34
NCI-H1793 | 0.357
PC-3 [JPC-3] | 0.633
EKVX | 0.303
LC-2-ad | 0.988
NCI-H1944 | 0.297
NCI-H1975 | 0.284
SK-LU-1 | 0.394
NCI-H358 | 0.119
NCI-H661 | 0.398
RERF-LC-KJ | 0.822

Same assay, conditions: first compound 0.3162 µM

Cell Line | relative viability
NCI-H1355 | 0.384
NCI-H322M | 0.457
NCI-H1437 | 0.412
NCI-H1755 | 0.723
NCI-H2023 | 0.452
HCC-15 | 0.287
NCI-H1793 | 0.352
PC-3 [JPC-3] | 0.749
EKVX | 0.295
LC-2-ad | 0.743
NCI-H1944 | 0.255
NCI-H1975 | 0.268
SK-LU-1 | 0.258
NCI-H358 | 0.118
NCI-H661 | 0.51
RERF-LC-KJ | 0.835

Same assay, conditions: first compound 1 µM

Cell Line | relative viability
NCI-H1355 | 0.256
NCI-H322M | 0.47
NCI-H1437 | 0.298
NCI-H1755 | 0.546
NCI-H2023 | 0.186
HCC-15 | 0.192
NCI-H1793 | 0.293
PC-3 [JPC-3] | 0.671
EKVX | 0.169
LC-2-ad | 0.689
NCI-H1944 | 0.175
NCI-H1975 | 0.236
SK-LU-1 | 0.236
NCI-H358 | 0.0938
NCI-H661 | 0.388
